Test results as given in patent US8093290B2, “Coolant solutions and compositions comprising the same” (Givaudan SA, priority 2002, dated 2012).

Test system: oral cavity
Experiment: observed area of the oral cavity affected by the coolant effect
Conditions: in vivo

## CC1CCC(C(C)C)C(OC(=O)C(C)O)C1 (stereo not shown) [Menthyl lactate, menthyl lactate]
  area of the oral cavity targeted by the coolant effect: front/middle of the mouth
